Literature values as cited in patent US10695309B2 (Western New England University, priority 2017, dated 2020).

Conditions: for half-life: in vivo

Compound	half-life	bioavailability (reported)
N[C@@H](Cc1cc(I)c(Oc2ccc(O)c(I)c2)c(I)c1)C(=O)O [Formulation T3, Liothyronine]	less than 2 days	69-99%
N[C@@H](Cc1cc(I)c(Oc2cc(I)c(O)c(I)c2)c(I)c1)C(=O)O [Formulation T4, levothyroxine]	140 to 170 h	–
